Experimental data reported in EP0903343A1, “Alpha-Substituted phenylpropionic acid derivative and medicine containing the same” (SSP Co., Ltd., priority 1997, dated 1999).

Tested on: db/db Mice
Experiment: Antidiabetic effect on diabetic model mice (blood glucose lowering)
Format: in vivo
Conditions: Mus musculus, po, 10 mg/kg/day orally once a day for 4 days, blood glucose 18 to 24 hours after final administration, vs control group, read-out: Percent reduction (%) of blood glucose
Experimental: The α-substituted phenylpropionic acid derivatives (1) according to the present invention were used to conduct a test for evaluating their activities against model mice suffering from non-insulin dependent diabetes mellitus (NIDDM). Incidentally, pioglitazone was used as a comparative compound.
db/db Mice (Crea Co.; preliminarily rearing male mice aged 7 to 9 weeks for a week and using 4 or 5 mice having a blood glucose level of at least 300 mg/dl as a group) were used as subject animals. A predetermined amount of each of the compounds according to the present invention or the comparative compound was orally administered to the mice for 4 days once a day with the compound suspended in a 0.5% aqueous solution of sodium carboxymethyl cellulose. At 18 to 24 hours after the final administration, blood was collected from each of the subject animals to determine its blood glucose level (found value) by means of a simplified blood glucose meter, Mediace (manufactured by Terumo Corporation). On the other hand, the blood glucose level of a group of mice (control group) to which only a 0.5% aqueous solution of sodium carboxymethyl cellulose had been administered was also determined (control value).
On the basis of the thus-determined blood glucose level as to each of the compounds according to the present invention and the comparative compound, percent reduction of blood glucose was calculated out in accordance with the following equation. Percent reduction (%) = [(Control value - Found value)/(Control value)] x 100 [formula]

SMILES	inhibition in vivo at 10 mg/kg/day
CCOC(Cc1ccc(OCCn2nc(C)c3ccccc3c2=O)cc1)C(=O)O (stereo not drawn) [Compound 1BC]	50%

Same assay, conditions: Mus musculus, po, 20 mg/kg/day orally once a day for 4 days, blood glucose 18 to 24 hours after final administration, vs control group, read-out: Percent reduction (%) of blood glucose

SMILES	inhibition in vivo at 20 mg/kg/day
CCOC(Cc1ccc(OCCn2c(=O)c3ccc(C(F)(F)F)cc3n(C)c2=O)cc1)C(=O)O (stereo not drawn) [Compound 1AR]	38%
CCOC(Cc1ccc(OCCn2ccc3ccccc3c2=O)cc1)C(=O)O (stereo not drawn) [Compound 1BS]	60%
CCOC(=O)C(Cc1ccc(OCCn2nc(C)c3ccccc3c2=O)cc1)OCC (stereo not drawn) [Compound 1BI, ethyl 2-ethoxy-3-{4-[2-(4-methyl-1-oxo-1,2-dihydrophthalazin-2-yl)ethoxy]phenyl}propanoate]	52%
CCOC(Cc1ccc(OCCn2ncc3ccccc3c2=O)cc1)C(=O)O (stereo not drawn) [Compound 1B, 2-ethoxy-3-{4-[2-(1-oxo-1,2-dihydrophthalazin-2-yl)ethoxy]phenyl}propanoic acid]	43%
CCOC(Cc1ccc(OCCn2ncc3ccccc3c2=O)cc1)C(=O)NO (stereo not drawn) [Compound 1AA, 2-ethoxy-3-{4-[2-(1-oxo-1,2-dihydrophthalazin-2-yl)ethoxy]phenyl}propanohydroxamic acid]	48%
CCOC(Cc1ccc(OCCN2COc3ccccc3C2=O)cc1)C(N)=O (stereo not drawn) [Compound 1J]	73%
CCc1ccc(CCOc2ccc(CC3SC(=O)NC3=O)cc2)nc1 (stereo not drawn) [Pioglitazone, pioglitazone, reference compound]	26%

Same assay, conditions: Mus musculus, po, 50 mg/kg/day orally once a day for 4 days, blood glucose 18 to 24 hours after final administration, vs control group, read-out: Percent reduction (%) of blood glucose

SMILES	inhibition in vivo at 50 mg/kg/day
CCSC(Cc1ccc(OCCN2COc3ccccc3C2=O)cc1)C(=O)O (stereo not drawn) [Compound 1O, 2-ethylthio-3-{4-[2-(4-oxo-3,4-dihydro-2H-1,3-benzoxazin-3-yl)ethoxy]phenyl}propanoic acid]	42%
CCOC(Cc1ccc(CCn2cnc3ccccc3c2=O)cc1)C(N)=O (stereo not drawn) [Compound 1Q, 2-ethoxy-3-{4-[2-(4-oxo-3,4-dihydroquinazolin-3-yl)ethyl]phenyl}propanamide]	49%
CCOC(Cc1ccc(OCCn2ncc3ccccc3c2=O)cc1)C(N)=O (stereo not drawn) [Compound 1A, 2-ethoxy-3-{4-[2-(1-oxo-1,2-dihydrophthalazin-2-yl)ethoxy]phenyl}propanamide]	73%
COC(Cc1ccc(OCCN2COc3ccccc3C2=O)cc1)C(N)=O (stereo not drawn) [Compound 1P, 2-methoxy-3-{4-[2-(4-oxo-3,4-dihydro-2H-1,3-benzoxazin-3-yl)ethoxy]phenyl}propanamide]	66%
CC(C)OC(Cc1ccc(OCCN2COc3ccccc3C2=O)cc1)C(N)=O (stereo not drawn) [Compound 1N]	72%
CCOC(Cc1ccc(OCCN2COc3ccccc3C2=O)cc1)C(=O)O (stereo not drawn) [Compound 1K]	69%
CCc1ccc(CCOc2ccc(CC3SC(=O)NC3=O)cc2)nc1 (stereo not drawn) [Pioglitazone, pioglitazone, reference compound]	44%
